Patent US20260207618A1, “PYRIMIDINE CARBOXAMIDE COMPOUNDS” (Acrivon Therapeutics, Inc., priority 2022, published 2026)

Key:
[1] = target: T1, recombinant human Wee1A kinase (Homo sapiens, UniProt P30291); test: LanthaScreen Europium (Eu) Kinase Binding Assay, Wee1A kinase (TR-FRET tracer displacement); conditions: 30 nM tracer 178, 5 nM Wee1A kinase, 60 minutes at room temperature
T1 construct: full length Wee1A kinase was expressed by baculovirus in insect cells; purchased Invitrogen PV3817; host or cells: insect cells (baculovirus)

[2] = tested on: Cdk1 phosphorylated on tyrosine 15; test: High-content imaging of pCdk1 Y15 by immunofluorescence in ACHN cells; type: cell-based; conditions: Homo sapiens, high-content imaging (IF), 4 h, 7 to 5000 nM, read-out: CDK1 Tyr15 Phosphorylation EC50 (IC50)
Summary of the method: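 ACHN cells were treated with compounds at 7–5000 nM for 4 h, then fixed, permeabilised and immunostained for pCDK1 Y15, with DAPI as nuclear counterstain. Automated imaging gave the percentage of cells with nuclear pCDK1 Y15 positivity relative to DMSO control. EC50 values came from dose-response curves.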

[3] = tested on: ACHN cells; test: Cell Titer Glo viability assay in ACHN cells; type: cell-based; conditions: Homo sapiens, 144 h, 0.17 to 10,000 nM
Method: ACHN renal cell carcinoma cell line (ATCC) was cultured in Minimum Essential Medium Eagle supplemented with 10% fetal calf serum (Sigma), 1% Penicillin-Streptomycin and 10 mM HEPES buffer (HyClone). Cell cultures were kept in a humidified incubator at 37° C. and 5% CO2. Cells were routinely tested for Mycoplasma contamination.
ACHN cells were seeded at a density of 400 cells per well in tissue culture treated 384 well plates (Corning Costar). After overnight incubation, cells were treated with drugs at concentrations ranging from 0.17 to 10,000 nM. Viability compared to untreated control was assessed at 144 h using Cell Titer Glo assay 2.0 (Promega).

T1 sequence (P30291 whole entry): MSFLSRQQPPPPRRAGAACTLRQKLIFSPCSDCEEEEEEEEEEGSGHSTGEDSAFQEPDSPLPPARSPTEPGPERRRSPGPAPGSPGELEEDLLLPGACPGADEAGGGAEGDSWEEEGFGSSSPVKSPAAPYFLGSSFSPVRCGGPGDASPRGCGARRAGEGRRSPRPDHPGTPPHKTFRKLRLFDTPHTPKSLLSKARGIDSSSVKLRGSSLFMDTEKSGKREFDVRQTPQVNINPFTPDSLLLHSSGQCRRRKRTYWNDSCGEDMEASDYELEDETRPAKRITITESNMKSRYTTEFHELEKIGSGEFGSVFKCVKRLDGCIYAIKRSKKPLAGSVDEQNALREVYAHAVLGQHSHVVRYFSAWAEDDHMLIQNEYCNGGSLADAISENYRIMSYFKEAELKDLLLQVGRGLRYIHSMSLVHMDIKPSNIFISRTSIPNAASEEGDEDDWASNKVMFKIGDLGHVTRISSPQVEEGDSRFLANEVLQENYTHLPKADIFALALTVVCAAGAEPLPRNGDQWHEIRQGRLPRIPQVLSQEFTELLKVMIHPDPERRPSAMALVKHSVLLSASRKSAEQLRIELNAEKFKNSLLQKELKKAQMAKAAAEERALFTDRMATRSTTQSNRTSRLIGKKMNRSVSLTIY

SMILES | IC50 [1] | EC50 [2] | EC50 [3]
COc1nc(Nc2cnn(C3CCN(C)CC3)c2)ncc1C(=O)Nc1c(Br)cccc1Br [Compound 212, N-2,6-dibromophenyl-4-methoxy-2-[1-(1-methyl-4-piperidyl)-4-pyrazolylamino]-5-pyrimidinecarboxamide] | ≤ 10 nM | 100 to 500 nM | ≤ 250 nM
COc1nc(Nc2ccc(C3CCN(C)CC3)c(C)c2)ncc1C(=O)Nc1c(Cl)cccc1Br [Compound 110, N-(2-bromo-6-chlorophenyl)-4-methoxy-2-((3-methyl-4-(1-methylpiperidin-4-yl)phenyl)amino)pyrimidine-5-carboxamide] | ≤ 10 nM | ≤ 100 nM | ≤ 250 nM
COc1nc(Nc2ccc(C3CCN(C)CC3)c(C)c2)ncc1C(=O)Nc1c(Cl)ccc(O)c1C [Compound 141, N-(6-chloro-3-hydroxy-2-methylphenyl)-4-methoxy-2-((3-methyl-4-(1-methylpiperidin-4-yl)phenyl)amino)pyrimidine-5-carboxamide] | ≤ 10 nM | ≤ 100 nM | ≤ 250 nM
COc1nc(Nc2ccc(C3CCN(C)CC3)c(C)c2)ncc1C(=O)Nc1c(Cl)cccc1C(F)(F)F [Compound 122, N-(2-chloro-6-(trifluoromethyl)phenyl)-4-methoxy-2-((3-methyl-4-(1-methylpiperidin-4-yl)phenyl)amino)pyrimidine-5-carboxamide] | ≤ 10 nM | 100 to 500 nM | 250 to 1000 nM
COc1nc(Nc2ccc3c(c2)CN(C)CC3(C)C)ncc1C(=O)Nc1c(Cl)cccc1Cl [Compound 135, N-(2,6-dichlorophenyl)-4-methoxy-2-((2,4,4-trimethyl-1,2,3,4-tetrahydroisoquinolin-7-yl)amino)pyrimidine-5-carboxamide] | ≤ 10 nM | ≤ 100 nM | 250 to 1000 nM
COc1nc(Nc2ccc(N3CCCNCC3)c(C)c2)ncc1C(=O)Nc1c(Cl)cccc1Br [Compound 205] | ≤ 10 nM | 100 to 500 nM | ≤ 250 nM
C#Cc1cccc(Cl)c1NC(=O)c1cnc(Nc2ccc(C3CCN(C)CC3)c(C)c2)nc1OC [Compound 129, N-(2-chloro-6-ethynylphenyl)-4-methoxy-2-((3-methyl-4-(1-methylpiperidin-4-yl)phenyl)amino)pyrimidine-5-carboxamide] | ≤ 10 nM | ≤ 100 nM | 250 to 1000 nM
COc1nc(Nc2ccc([C@@H]3CCNC3)c(C)c2)ncc1C(=O)Nc1c(Cl)cccc1Br (single isomer, unassigned) [Compound 195] | ≤ 10 nM | 100 to 500 nM | 250 to 1000 nM
COc1nc(Nc2ccc(OCCCN(C)C)c(C)c2)ncc1C(=O)Nc1c(Cl)ccc(O)c1C [Compound 158, N-(6-chloro-3-hydroxy-2-methylphenyl)-2-((4-(3-(dimethylamino)propoxy)-3-methylphenyl)amino)-4-methoxypyrimidine-5-carboxamide] | ≤ 10 nM | 100 to 500 nM | 250 to 1000 nM
COc1nc(Nc2ccc(O[C@@H]3CCNC3)c(C)c2)ncc1C(=O)Nc1c(Cl)cccc1Br [Compound 210] |  | 100 to 500 nM | 250 to 1000 nM
COc1nc(Nc2ccc([C@@H]3CCCN(C)C3)c(C)c2)ncc1C(=O)Nc1c(Cl)cccc1Br (single isomer, unassigned) [Compound 197] | ≤ 10 nM | 100 to 500 nM | ≤ 250 nM
COc1nc(Nc2ccc3c(c2)CN(C)CC3)ncc1C(=O)Nc1c(Cl)cccc1Cl [Compound 116, N-(2,6-dichlorophenyl)-4-methoxy-2-((2-methyl-1,2,3,4-tetrahydroisoquinolin-7-yl)amino)pyrimidine-5-carboxamide] | ≤ 10 nM | ≤ 100 nM | 250 to 1000 nM
COc1nc(Nc2ccc(C3CCN(C)CC3)c(C)c2)ncc1C(=O)Nc1c(Cl)cccc1Cl [Compound 100, N-(2,6-dichlorophenyl)-4-methoxy-2-((3-methyl-4-(1-methylpiperidin-4-yl)phenyl)amino)pyrimidine-5-carboxamide] | ≤ 10 nM | ≤ 100 nM | 250 to 1000 nM
COc1nc(Nc2ccc(OC3CCN(C)CC3)c(C)c2)ncc1C(=O)Nc1c(Cl)ccc(O)c1C [Compound 152, N-(6-chloro-3-hydroxy-2-methylphenyl)-4-methoxy-2-((3-methyl-4-((1-methylpiperidin-4-yl)oxy)phenyl)amino)pyrimidine-5-carboxamide] | ≤ 10 nM | 100 to 500 nM | 
CCOc1nc(Nc2cnn([C@H](C)CNC)c2)ncc1C(=O)Nc1c(Cl)cccc1Br [Compound 203, N-(2-bromo-6-chlorophenyl)-2-{1-[(R)-1-methyl-2-(methylamino)ethyl]-4-pyrazolylamino}-4-ethoxy-5-pyrimidinecarboxamide] | ≤ 10 nM | > 1000 nM | 
COc1nc(Nc2ccc(OC3CCN(C)CC3)c(C)c2)ncc1C(=O)Nc1c(Cl)cccc1Br [Compound 220, N-(2-bromo-6-chlorophenyl)-4-methoxy-2-((3-methyl-4-((1-methylpiperidin-4-yl)oxy)phenyl)amino)pyrimidine-5-carboxamide] | ≤ 10 nM | 100 to 500 nM | 
COc1nc(Nc2ccc([C@H]3CCCN(C)C3)c(C)c2)ncc1C(=O)Nc1c(Cl)cccc1Br [Compound 196, (R)—N-(2-bromo-6-chlorophenyl)-4-methoxy-2-((3-methyl-4-(1-methylpiperidin-3-yl)phenyl)amino)pyrimidine-5-carboxamide] | ≤ 10 nM | 100 to 500 nM | 
COc1nc(Nc2ccc(N3CCN(C)CC3)cc2)ncc1C(=O)Nc1c(Cl)cccc1Cl [Compound 111, N-(2,6-dichlorophenyl)-4-methoxy-2-((4-(4-methylpiperazin-1-yl)phenyl)amino)pyrimidine-5-carboxamide] | ≤ 10 nM | 100 to 500 nM | 
CCOc1nc(Nc2cnn(CCCN(C)C)c2)ncc1C(=O)Nc1c(Cl)cccc1Br [Compound 200, N-(2-bromo-6-chlorophenyl)-2-{1-[3-(dimethylamino)propyl]-4-pyrazolylamino}-4-ethoxy-5-pyrimidinecarboxamide] |  | 100 to 500 nM | 250 to 1000 nM
COc1nc(Nc2ccc(N3CCCN(C)CC3)cc2)ncc1C(=O)Nc1c(Cl)cccc1Br [Compound 206, N-(2-bromo-6-chlorophenyl)-4-methoxy-2-[p-(4-methyl-1,4-diazepan-1-yl)phenylamino]-5-pyrimidinecarboxamide] | ≤ 10 nM | 100 to 500 nM | 
COc1nc(Nc2ccc(C3CCN(C)CC3)c(C)c2)ncc1C(=O)Nc1c(Cl)ccc(O)c1Cl [Compound 133, N-(2,6-dichloro-3-hydroxyphenyl)-4-methoxy-2-((3-methyl-4-(1-methylpiperidin-4-yl)phenyl)amino)pyrimidine-5-carboxamide] | ≤ 10 nM | ≤ 100 nM | ≤ 250 nM
COc1nc(Nc2ccc(OCCN(C)C)c(C)c2)ncc1C(=O)Nc1c(Cl)ccc(O)c1C [Compound 149, N-(6-chloro-3-hydroxy-2-methylphenyl)-2-((4-(2-(dimethylamino)ethoxy)-3-methylphenyl)amino)-4-methoxypyrimidine-5-carboxamide] | ≤ 10 nM | 100 to 500 nM | 
COc1nc(Nc2ccc(N3CCNCC3)c(C)c2)ncc1C(=O)Nc1c(Cl)cccc1Cl [Compound 162] | ≤ 10 nM | 100 to 500 nM | 
COc1nc(Nc2cnn([C@@H]3CCCN(C)CC3)c2)ncc1C(=O)Nc1c(Cl)cccc1Cl (single isomer, unassigned) [Compound 188] | ≤ 10 nM | 100 to 500 nM | 
COc1nc(Nc2ccc(OCCCN3CCOCC3)c(C)c2)ncc1C(=O)Nc1c(Cl)ccc(O)c1C [Compound 150, N-(6-chloro-3-hydroxy-2-methylphenyl)-4-methoxy-2-((3-methyl-4-(3-morpholinopropoxy)phenyl)amino)pyrimidine-5-carboxamide] | ≤ 10 nM | > 1000 nM | 
COc1nc(Nc2cnn([C@@H]3CCCNCC3)c2)ncc1C(=O)Nc1c(Cl)cccc1Cl (single isomer, unassigned) [Compound 186] | ≤ 10 nM | > 1000 nM | 
COc1nc(Nc2ccc(N3CCC(N(C)C)CC3)c(C)c2)ncc1C(=O)Nc1c(Cl)cccc1Br [Compound 213] | ≤ 10 nM | 100 to 500 nM | ≤ 250 nM
Cc1cc(Nc2ncc(C(=O)Nc3c(Cl)cccc3Cl)c(OC3CC3)n2)ccc1C1CCN(C)CC1 [Compound 140, 4-cyclopropoxy-N-(2,6-dichlorophenyl)-2-((3-methyl-4-(1-methylpiperidin-4-yl)phenyl)amino)pyrimidine-5-carboxamide] | ≤ 10 nM | 100 to 500 nM | ≤ 250 nM
COc1nc(Nc2ccc([C@H]3CCNC3)c(C)c2)ncc1C(=O)Nc1c(Cl)cccc1Br (single isomer, unassigned) [Compound 194] | ≤ 10 nM | 100 to 500 nM | 250 to 1000 nM
